From PubChem BioAssay AID1996
≈ marks a conversion by molar mass, not a printed value. Non-standard residues stand in square brackets, D forms with d. Residues, ends and D or L forms follow the SMILES beside them. ξ: configuration not given here. *: point of attachment. Cbz = O=C(OCc1ccccc1)*; ξN = NC(=O)CC(N)C(=O)O; Boc = CC(C)(C)OC(=O)*

settings: buffer; pH 7.4; 200.0 µM

Structure (SMILES) | solubility kinetic
CCN1C(=O)c2cccc3c(S(=O)(=O)N4CCNCC4)ccc1c23 | > 51.8 µg/mL
NC(=O)c1c(NC(=O)c2ccccc2Cl)sc2c1CCC2 | 0.7 µg/mL (≈ 2.18 µM)
COc1ccccc1-c1nnc(SCC(=O)N2CCCC2)o1 | > 47.9 µg/mL
CCc1nc2ccc(C(=O)NCc3ccccc3)cc2nc1CC | 3.6 µg/mL (≈ 11.3 µM)
O=C(NCc1ccccc1)c1cccc(S(=O)(=O)N2CCCCC2)c1 | 7.6 µg/mL (≈ 21.2 µM)
Cc1cccc(NC(=O)C(C)n2cc([N+](=O)[O-])cn2)n1 (configuration not stated) | > 41.3 µg/mL
Cc1cccc(C(=O)Nc2sc3c(c2C(=O)O)CCC3)c1 | > 45.2 µg/mL
CCOC(=O)CNC(=O)C(CC(N)=O)NC(=O)OC(C)(C)C (configuration not stated) (Boc-[ξN]-Gly-OEt) | > 47.6 µg/mL
O=C1CCCc2ccccc2N1Cc1ccc(F)cc1 | 30 µg/mL (≈ 111 µM)
CC(=O)Nc1ccc(-c2cn3c(n2)SCC3)cc1 | 34.4 µg/mL (≈ 133 µM)
CCOC(=O)c1cnc2c(OC)cccc2c1Oc1ccccc1 | 7.2 µg/mL (≈ 22.3 µM)
Cn1c(CO)cnc1S(=O)(=O)Cc1ccc(Cl)cc1 | > 45.1 µg/mL
Cc1ccnc(NC(=O)c2ccc3[nH]c(=O)c(=O)[nH]c3c2)c1 | 2.2 µg/mL (≈ 7.43 µM)
COc1cc2c(cc1OC)CN(Cc1ccc(C)cc1)CC2 | 35.1 µg/mL (≈ 118 µM)
CC(C)Oc1ccc(Cc2cnc(=S)[nH]c2N)cc1 | 15.4 µg/mL (≈ 55.9 µM)
Cc1ccc(NS(=O)(=O)c2c(C)[nH]c(=O)[nH]c2=O)c(C)c1 | > 46.4 µg/mL
Nc1nc(SCC(=O)Nc2cccnc2Cl)n[nH]1 | > 42.7 µg/mL
CCOC(=O)C1=C(C)NC(C)=C(C(=O)OCC)C1C(=O)OCC(=O)NC1CCCCC1 | > 65.5 µg/mL
CN(C)CCN(C(=O)c1ccc2ccccc2c1)c1nc2ccc(Br)cc2s1.Cl | 3.6 µg/mL
CNc1nc2cccnc2s1 | > 24.8 µg/mL
COC(=O)c1c(C)[nH]c(C(=O)C(C)OC(=O)c2ccco2)c1C (configuration not stated) | 4.5 µg/mL (≈ 14.1 µM)
O=c1c(Cc2ccccc2)c(O)c2cccc3c4c(n1c23)CCCC4 | 3.7 µg/mL (≈ 11.2 µM)
O=C(COC(=O)c1ccco1)NC12CC3CC(CC(C3)C1)C2 | 2.2 µg/mL (≈ 7.25 µM)
CC1CCCCC1NC(=O)CNC(=O)c1ccco1 (configuration not stated) | 37.2 µg/mL (≈ 141 µM)

Structure (SMILES) | solubility kinetic
O=C(NCCCNC(=O)c1cnccn1)c1ccc(Cl)cc1 | > 47.8 µg/mL
Cc1ccc(-n2c(-c3ccccc3)c[nH]c2=S)cc1 | 0.6 µg/mL (≈ 2.25 µM)
COc1ccc(N2CCN(C(=O)Cc3coc4cc(C)ccc34)CC2)cc1 | 25.9 µg/mL (≈ 71.1 µM)
Cc1cccc(OCC(=O)NCC(c2ccco2)N2CCCC2)c1 (configuration not stated) | > 49.3 µg/mL
CSc1nc2ccc(NC(=O)COc3ccccc3F)cc2s1 | 2.2 µg/mL (≈ 6.31 µM)
Cc1c(C(=O)Oc2ccc(Cl)cc2)n(C)oc1=O | 37 µg/mL (≈ 138 µM)
CSc1ccccc1NC(=O)Cc1ccccc1[N+](=O)[O-] | 5.7 µg/mL (≈ 18.9 µM)
O=C(Nc1ccc(NC(=O)c2ccccc2Cl)cc1)c1cccnc1 | 3 µg/mL (≈ 8.53 µM)
Cc1cccc(CC(=O)N2CCOCC2)c1 | > 32.9 µg/mL
CCCC(=O)NC(c1ccc(C(C)C)cc1)c1ccc2cccnc2c1O (configuration not stated) | < 0.4 µg/mL
CC(C)c1ccc(N=Cc2c(O)n(C3CC3)c(=S)[nH]c2=O)cc1 | 0.5 µg/mL (≈ 1.52 µM)
O=C(Nc1ccc(O)cc1)/C(=C\C=C\c1ccccc1)NC(=O)c1ccccc1 | 14.9 µg/mL (≈ 38.8 µM)
CCNC(=O)CC1SC(=Nc2ccc(C)c([N+](=O)[O-])c2)N(C)C1=O (configuration not stated) | > 52.6 µg/mL
O=C(Nc1ccccc1)c1ccccc1OS(=O)(=O)c1ccccc1 | 48 µg/mL (≈ 136 µM)
CCOC(=O)c1ccc(N2C(=O)c3cccc4c(C(=O)O)ccc(c34)C2=O)cc1 | 25 µg/mL (≈ 64.2 µM)
Cc1ccc(C(=O)COC(=O)CN2C(=O)C3C4C=CC(C4)C3C2=O)cc1C (configuration not stated) | > 55.1 µg/mL
CCOC(=O)c1nc(Nc2ccc(OC)cc2)c2ccccc2n1 | > 48.5 µg/mL
CNC(=O)c1ncoc1-c1ccc(Cl)cc1 | 33.8 µg/mL (≈ 143 µM)
CC(=O)c1cccc(NC(=O)NCCc2ccc(Cl)cc2)c1 | 1.6 µg/mL (≈ 5.05 µM)
CCn1c(=NC(=O)COc2ccccc2)sc2cccc(F)c21 | < 0.4 µg/mL
Cc1cc(Cl)ccc1NC(=S)NC1CCCC1 | 18.1 µg/mL (≈ 67.3 µM)
O=C(CSCc1ccc(Cl)cc1)Nc1cccc(C(=O)O)c1 | > 50.4 µg/mL
CCc1nc(-c2ccccc2)c2ccccn12.O=C(O)C(=O)O | 38.1 µg/mL
Cc1cc(/C=C(\C#N)C(=O)N2CCOCC2)c(C)n1C1CCCC1 | 32.9 µg/mL (≈ 100 µM)

Structure (SMILES) | solubility kinetic
COc1cc(N)c(Cl)cc1C(=O)OCC(=O)NC(=O)NCc1ccco1 | 5.3 µg/mL (≈ 13.9 µM)
CN(Cc1nc2ccccc2c(=O)[nH]1)C(=O)C1CC(=O)N(c2cccc3ccccc23)C1 (configuration not stated) | > 64 µg/mL
C=CCN1C(=O)C(C)NC1=S (configuration not stated) | > 25.5 µg/mL
C=CCn1ccc2c([N+](=O)[O-])cccc2c1=O | 30.2 µg/mL (≈ 131 µM)
Cc1ccccc1OP(N)(=O)Oc1ccccc1C | > 41.6 µg/mL
O=C(Cc1ccc(Cl)cc1)Nc1ccc(CN2CCCCC2)cc1 | > 51.4 µg/mL
Cc1ccc(CN2CCN(C3CCC3)CC2CCO)cc1 (configuration not stated) | 42.4 µg/mL (≈ 147 µM)
COc1ccc(C(=O)OCc2cc(=O)n3ccsc3n2)cc1F | 4 µg/mL (≈ 12 µM)
Nc1nc(-c2cc(-c3ccccc3)no2)cs1 | 4.4 µg/mL (≈ 18.1 µM)
O=C(Nc1cccc2ccccc12)c1ccccc1Cl | 1.7 µg/mL (≈ 6.03 µM)
CC(C)Oc1ccccc1Cn1c(=O)oc2ccccc21 | 9 µg/mL (≈ 31.8 µM)
CCN1CCc2c(OCC(=O)N3CCc4ccccc43)cccc2C1=O | > 52.6 µg/mL
O=[N+]([O-])c1ccc(NC(=S)N2CCCC2)cc1 | 8.2 µg/mL (≈ 32.6 µM)
COCCN(C(=S)Nc1c(C)cccc1C)C(C)c1ccco1 (configuration not stated) | 47.1 µg/mL (≈ 142 µM)
Cc1cccc(OC(C)C(=O)Nc2nccs2)c1 (configuration not stated) | 37.9 µg/mL (≈ 144 µM)
COc1ccccc1N1CN(CCc2ccccc2)CNC1=S | 45.4 µg/mL (≈ 139 µM)
CC12CCC(C(=O)N(CC3CO3)C1=O)C2(C)C (configuration not stated) | > 35.6 µg/mL
Cl.FC(F)(F)c1cccc(C2NCc3ccccc3-n3cccc32)c1 (configuration not stated) | 3.9 µg/mL
C=CCc1ccccc1OCC(O)CNC(=O)c1ccccc1C(=O)O (configuration not stated) | > 53.3 µg/mL
Cc1cccc(C)c1NC(=O)CNC(=O)COC(=O)c1ccc(Cl)s1 | 23.9 µg/mL (≈ 62.8 µM)
CCN(CC)CCNC(=O)c1cc2ccccc2nc1Cl | 31.2 µg/mL (≈ 102 µM)
CS(=O)(=O)N1CCC(C(=O)Nc2ccc(F)cc2)CC1 | > 45.1 µg/mL
O=C(CCS(=O)(=O)c1ccccc1)OCc1ccc([N+](=O)[O-])cc1 | 32 µg/mL (≈ 91.6 µM)
COc1ccc(N2CCOCC2)c(NC(=O)c2ccc3c(c2)OCO3)c1 | 26.2 µg/mL (≈ 73.5 µM)

Structure (SMILES) | solubility kinetic
COc1ccccc1C(=O)NCCC(=O)NCC(c1ccccc1)N(C)C (configuration not stated) | > 55.4 µg/mL
OCCC1CN(Cc2cccnc2)CCN1CCc1ccccc1 (configuration not stated) | 42.4 µg/mL (≈ 130 µM)
O=C(CCCN1C(=O)/C(=C\c2ccccc2)SC1=S)N1CCOCC1 | 9.8 µg/mL (≈ 26 µM)
Cc1cc(Oc2ccc([N+](=O)[O-])cc2)nc(N2CCOCC2)n1 | 0.4 µg/mL (≈ 1.26 µM)
COc1ccc(Cl)cc1N1C(=N)SCC1=O | > 38.5 µg/mL
CCOc1ccc(C(C)NC(=O)C2CCCC2)cc1 (configuration not stated) | > 39.2 µg/mL
CC(=O)Nc1cccc(Oc2nc(-c3ccccn3)nc3ccccc23)c1 | 0.8 µg/mL (≈ 2.24 µM)
O=C(CCCc1cccs1)Nc1ccc2c(c1)OCO2 | 39.2 µg/mL (≈ 135 µM)
CC(=O)c1nc(-c2ccccc2)sc1C | 12.7 µg/mL (≈ 58.4 µM)
O=C(COC(=O)c1cccnc1Cl)NC12CC3CC(CC(C3)C1)C2 | 50.1 µg/mL (≈ 144 µM)
O=C(CN1C(=O)COc2ccccc21)Nc1ccccc1F | 21.4 µg/mL (≈ 71.3 µM)
O=C(NCc1ccccc1F)C1CCCN(c2cnccn2)C1 (configuration not stated) | 44.7 µg/mL (≈ 142 µM)
COC(=O)C(C)NC(=O)C1CCCN1C(=O)CNC(=O)OCc1ccccc1 (stereo not drawn) (Cbz-Gly-Pro-Ala-OMe; configuration not given here) | > 58.7 µg/mL
CN1C2CCC1CC(NC(=O)c1cccc(C(F)(F)F)c1)C2 (configuration not stated) | > 46.9 µg/mL
CCCc1nc2ccc(N)cc2c(=O)n1Cc1ccccc1Cl | 13 µg/mL (≈ 39.7 µM)
COc1ccc(NC(=O)c2ccc3c(c2)OCCO3)cc1OC | 10.3 µg/mL (≈ 32.7 µM)
NS(=O)(=O)c1ccc(CCN2C(=O)CCC2=O)cc1 | > 42.3 µg/mL
OC(CN1CC=C(c2ccccc2)CC1)c1ccccc1 (configuration not stated) | 40.8 µg/mL (≈ 146 µM)
COC(=O)C1=C2SCC(=O)N2C(N)=C(C#N)C1 | > 37.7 µg/mL
COCCn1c(SC2CCOC2=O)nc2ccccc2c1=O (configuration not stated) | > 48.1 µg/mL
Cc1ccc(OCc2ccc(C(=O)Nc3cc(C)on3)o2)c([N+](=O)[O-])c1 | 1.4 µg/mL (≈ 3.92 µM)
O=C(NCCC(=O)N1CCCCC1)c1ccccc1Cl | > 44.2 µg/mL
O=C(CSc1nnc(-c2ccncc2)o1)Nc1nncs1 | > 48.1 µg/mL
O=Cc1ccc(OCC(=O)Nc2ccccc2-c2ccccc2)cc1 | 0.8 µg/mL (≈ 2.41 µM)

Structure (SMILES) | solubility kinetic
COc1ccc(NS(=O)(=O)c2cc(NC(=O)c3cncc(Br)c3)ccc2OC)cc1 | 21.9 µg/mL (≈ 44.5 µM)
CC1=N/C(=C/c2cc(Br)cc(Br)c2O)C(=O)O1 | 2.8 µg/mL (≈ 7.76 µM)
Cc1cnc([N+](=O)[O-])n1CCOC(=O)NC(=O)c1ccc(F)cc1 | > 50.4 µg/mL
NC(CS(=O)O)C(=O)O (configuration not stated) | > 23 µg/mL
O=C(Nc1ccc2c(c1)OCO2)c1ccc([N+](=O)[O-])cc1[N+](=O)[O-] | 10.6 µg/mL (≈ 32 µM)
Cc1ccc(C(=O)N/C(=C\c2ccco2)C(=O)N2CCOCC2)cc1C | > 53.2 µg/mL
Cc1ncc([N+](=O)[O-])n1CC(=O)Nc1ccc(F)cc1F | 34 µg/mL (≈ 115 µM)
Cc1cc(C)nc(NC(=S)NC(=O)c2ccccc2F)n1 | 8.1 µg/mL (≈ 26.6 µM)
Cc1ccc(-n2c(=O)[nH]c3c(C(N)=O)nc(C(C)C)nc32)cc1 | 9.4 µg/mL (≈ 30.2 µM)
Cc1cccc(NC(=O)CCN2CCC(C)CC2)c1 | > 39.1 µg/mL
CC(=O)c1cccc(-n2c(CCC(=O)O)ccc2-c2ccc(C)cc2)c1 | > 52.1 µg/mL
Cc1ccc(O)c(CNc2nccs2)c1 | 7.4 µg/mL (≈ 33.6 µM)
O=[N+]([O-])c1ccc2nonc2c1Nc1cccc(F)c1 | 1 µg/mL (≈ 3.65 µM)
CC1(C)c2cc(O)ccc2OC1N1CCOCC1 (configuration not stated) | > 37.4 µg/mL
COc1ccc(-n2c(O)c(C=NCc3ccc4c(c3)OCO4)c(=O)[nH]c2=O)cc1 | 6.8 µg/mL (≈ 17.2 µM)
CC(C)[C@H](NC(=O)c1ccccc1F)C(=O)OCCN1C(=O)c2ccccc2C1=O | > 61.9 µg/mL
CCOC(=O)/C(=C\c1ccccc1)NC(=O)c1ccccc1 | > 44.3 µg/mL
O=C1NC(=S)N/C1=C/c1cccnc1 | > 30.8 µg/mL
Nc1nc2ncc(C(=O)c3cc(F)ccc3O)cc2s1 | 7 µg/mL (≈ 24.2 µM)
CC(C)N1CC(C(=O)Nc2ccc(F)c(Cl)c2)CC1=O (configuration not stated) | > 44.8 µg/mL
CC1(C)Cc2cccc(C(=O)Nc3ccncc3)c2O1 | 34.8 µg/mL (≈ 130 µM)
